Assay results published in patent US9682960B2 (priority 2013, dated 2017).
Like-named read-outs stand apart in the source and are kept apart here.

How the values were obtained:
[1] = molecular target: Human Androgen Receptor (Homo sapiens (Human), UniProt P10275); assay: Androgen receptor assay: [3H]R1881 displacement, cytosol of HEK-293 cells transfected with hAR (hydroxylapatite assay); type: binding
[2] = test system: Shionogi mouse mammary carcinoma cells; assay: In vitro androgenic/antiandrogenic activity: proliferation of Shionogi cells with or without DHT; type: cell-based; conditions: for stimulation at 10^−7M on basal Shionogi cell proliferation (in words): basal (no DHT)
[3] = test system: castrated (CX) immature male rats; assay: Systemic androgenic (agonistic) activity in orchidectomized (CX) immature male rats; type: in vivo, rat; conditions: 0.1 mg/rat/po, 7 days; for CX Agonistic activity % Stimulation Bulbo: bulbocavernosus muscles weight; for CX Agonistic activity % Stimulation SV: seminal vesicles weight; for CX Agonistic activity % Stimulation Prostate: ventral prostate weight
Procedure: Immature male rats (Crl:CD(SD)Br) 22 to 24-day old weighting 60-80 g at start of treatment were obtained from Charles-River, Inc. (St-Constant, Quebec, Canada) and housed up to 5 per cage in plastic bins in a temperature (23±1° C.)- and light (12 h light/day, lights on at 7 h15)-controlled environment. The rats were fed rodent chow and tap water ad libitum. […] The day following their arrival, the designed animals were orchidectomized (CX) under Isoflurane anesthesia (Study Day 1) via the scrotal route and were then randomly assigned to groups of 3 to 5 animals. At the time of orchidectomy, one silastic implant of dihydrotestosterone (DHT; 1 cm length of pure DHT in silastic tubing having inner and outer diameter of 0.078 and 0.125 inches, respectively), was inserted subcutaneously in the dorsal area of animals assigned to the evaluation of antiandrogenic activity. In the case of intact animal experiments, the orchidectomy and the silastic implant installation are omitted.
Tested compounds were administered orally once daily for 7 days from Study Day 2 to Study Day 8 at doses generally ranging from 0.1 and 0.5 mg/animal. Compounds were either solubilized in dimethylsulfoxide (DMSO, 10% final concentration) and were administered as a solution/suspension in 0.9% NaCl-1% gelatin or were administered as suspensions in 0.4% aqueous methylcellulose. Animals of the control groups received the corresponding vehicle alone during the 7-day period. Some animals were treated with the antiandrogen Flutamide or Casodex as reference. The animals under isoflurane anesthesia were killed by cervical dislocation on day 9 of the study, approximately 24 h after the last dosing. The ventral prostate, seminal vesicles and bulbocavernosus muscles were rapidly dissected and weighed.
For calculations with intact animals, control DHT is replaced by control intact and the % stimulation is subtracted by 100%. W is the weight of the prostate, seminal vesicles or bulbocavernosus muscles. Discussion

[4] = relative binding affinity, R1881 = 100, […]
[5] = Mus musculus, read-out: Shionogi Antiandrogenic Activity IC50, DHT (0.3 nM)-stimulated cell number
[6] = read-out: Shionogi Antiandrogenic Activity IC50, DHT (0.3 nM)-stimulated cell number
[7] = relative binding affinity, R1881 = 100, transfected cells

Sequence of Human Androgen Receptor (P10275 whole entry): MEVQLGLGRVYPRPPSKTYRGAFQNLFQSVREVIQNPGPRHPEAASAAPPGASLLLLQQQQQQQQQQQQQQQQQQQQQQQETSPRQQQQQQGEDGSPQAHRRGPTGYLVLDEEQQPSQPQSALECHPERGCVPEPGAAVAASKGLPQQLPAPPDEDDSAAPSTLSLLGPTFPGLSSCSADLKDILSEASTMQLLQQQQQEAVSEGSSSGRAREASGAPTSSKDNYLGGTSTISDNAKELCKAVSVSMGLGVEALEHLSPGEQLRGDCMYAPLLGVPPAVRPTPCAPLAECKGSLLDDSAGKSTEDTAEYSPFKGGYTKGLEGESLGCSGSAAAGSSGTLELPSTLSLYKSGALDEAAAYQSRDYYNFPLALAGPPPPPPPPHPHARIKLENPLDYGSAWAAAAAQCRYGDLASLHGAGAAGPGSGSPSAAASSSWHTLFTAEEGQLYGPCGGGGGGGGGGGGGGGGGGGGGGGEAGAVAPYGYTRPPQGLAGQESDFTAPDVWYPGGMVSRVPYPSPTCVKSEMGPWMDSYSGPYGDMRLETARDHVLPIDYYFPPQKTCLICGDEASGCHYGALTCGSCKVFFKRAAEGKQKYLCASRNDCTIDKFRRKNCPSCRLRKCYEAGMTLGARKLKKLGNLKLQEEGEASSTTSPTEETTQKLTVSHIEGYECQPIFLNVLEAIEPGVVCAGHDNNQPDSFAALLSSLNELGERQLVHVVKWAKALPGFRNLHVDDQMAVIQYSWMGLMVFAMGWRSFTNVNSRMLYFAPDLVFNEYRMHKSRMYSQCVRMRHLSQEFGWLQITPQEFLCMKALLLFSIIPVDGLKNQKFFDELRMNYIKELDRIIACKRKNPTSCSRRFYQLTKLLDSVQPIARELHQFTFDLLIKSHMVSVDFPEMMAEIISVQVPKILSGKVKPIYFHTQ

SMILES	Human Androgen Receptor Binding RBA (%) R1881 = 100 [1, 4]	IC50 [2, 5]	Human Androgen Receptor Binding RBA (%) R1881 = 100 [1, 7]	further results
CC1(C)C(=O)N(c2ccc(C#N)c(Cl)c2)C(=O)N1CCCOc1ccc(-c2ccncc2)c(F)c1 [EM-9115]	12.5 ± 2.3 (n = 6) %	18 ± 4 nM		
CC1(C)C(=O)N(c2ccc(C#N)c(C(F)(F)F)c2)C(=S)N1CCCOc1ccc(-c2ccncc2)cc1C(F)(F)F [EM-8900]	130 ± 60 (n = 2) %	2.6 to 4.3 nM		stimulation at 10^−7M on basal Shionogi cell proliferation (in words) [2]: none of these compounds has any activity; IC50 [2, 6]: 3.8 nM
CC1(C)C(=O)N(c2ccc(C#N)c(Cl)c2)C(=O)N1CCCOc1ccc(-c2cc[n+]([O-])cc2)cc1Cl.Cl [EM-9288]	24 ± 8 (n = 2) %			
COc1cc(-c2ccncc2)ccc1OCCCN1C(=O)N(c2ccc(C#N)c(Cl)c2)C(=O)C1(C)C [EM-9261]	2.5%	27 nM		
CC1(C)C(=O)N(c2ccc(C#N)c(Cl)c2)C(=S)N1CCCOc1ccc(-c2cccnc2)cc1 [EM-9049]	269%	6.8 nM		
CC1(C)C(=O)N(c2ccc(C#N)c(C(F)(F)F)c2)C(=S)N1CCCOc1ccc(-c2ccncc2)c(Cl)c1 [EM-8888]			1880 ± 1040 (n = 2) %	IC50 ([2]; Mus musculus, DHT (0.3 nM)-stimulated cell number, read-out: Shionogi Antiandrogenic Activity IC50): 111 nM
CC1(C)C(=O)N(c2ccc(C#N)c(C(F)(F)F)c2)C(=O)N1CCOc1ccc(-c2cc[n+]([O-])cc2)cc1 [EM-9180]		24 nM	1.7%	
CC1(C)C(=O)N(c2ccc(C#N)c(C(F)(F)F)c2)C(=O)N1CCCOc1ccc(-c2ccncc2)cn1 [EM-9114]	7.9 ± 4.1 (n = 3) %	19.2 ± 0.3 nM		
CC1(C)C(=O)N(c2ccc(C#N)c(Cl)c2)C(=S)N1CCCOc1ccc(-c2cc[n+]([O-])cc2)cc1 [EM-9120]	106%	9.2 ± 0.8 nM		
CC1(C)C(=O)N(c2ccc(C#N)c(C(F)(F)F)c2)C(=S)N1CCCOc1cccc(-c2ccncc2)c1 [EM-8871]	558 ± 102 (n = 2) %	66 nM		
CC1(C)C(=O)N(c2ccc(C#N)c(Cl)c2)C(=S)N1CCCOc1ccc(-c2cc[n+]([O-])cc2)c(F)c1 [EM-9119]	122%	12.1 ± 0.5 nM		
CC1(C)C(=O)N(c2ccc(C#N)c(C(F)(F)F)c2)C(=S)N1CCCOc1ccc(-c2ccnc(F)c2)cc1 [EM-8923]		48 nM	136%	
CC1(C)C(=O)N(c2ccc(C#N)c(C(F)(F)F)c2)C(=S)N1CCCOc1ccc(CN2CCC(O)C2)cc1 (centres unmarked) [EM-7365, reference compound]			24%	IC50 ([2]; DHT (0.3 nM)-stimulated cell number, read-out: Shionogi Antiandrogenic Activity IC50): 6 nM
CC1(C)C(=O)N(c2ccc(C#N)c(F)c2)C(=O)N1CCCOc1ccc(-c2cc[n+]([O-])cc2)cc1 [EM-9176]		> 100 nM	~0.1%	
CC1(C)C(=O)N(c2ccc(C#N)c(C(F)(F)F)c2)C(=S)N1CCCOc1ccc(-c2cc[n+]([O-])cc2)cc1.Cl [EM-9043]	175%			stimulation at 10^−7M on basal Shionogi cell proliferation (in words) [2]: none of these compounds has any activity; IC50 [2, 6]: 3.4 nM
CC1(C)C(=O)N(c2ccc(C#N)c(C(F)(F)F)c2)C(=O)N1CCCOc1ccc(-c2ccncc2)c(C(F)(F)F)c1 [EM-9089]		49 nM	2.0%	
CC1(C)C(=O)N(c2ccc(C#N)c(C(F)(F)F)c2)CC(=O)N1CCCOc1ccc(-c2ccncc2)cc1 [EM-9126]	<0.1%	173 nM		
CC1(C)C(=O)N(c2ccc(C#N)c(Cl)c2)C(=O)N1CCCOc1ccc(-c2ccncc2)cc1F [EM-9198]	22%	5.3 nM		times more potent than OH-flutamide on the human AR (RBA ratio) ([1]; versus hydroxyflutamide): 105 times; fold more potent than OH-flutamide in reversing DHT-stimulated Shionogi cell proliferation ([2]; versus hydroxyflutamide): 6.4 fold
CC1(C)C(=O)N(c2ccc(C#N)c(Cl)c2)C(=O)N1CCCOc1ccc(-c2ccncc2)cc1Cl.Cl [EM-9287]	125 ± 9 (n = 3) %			
CC1(C)C(=O)N(c2ccc(C#N)c(C(F)(F)F)c2)C(=O)N1CCCOc1ccc(-c2ccncc2)nc1 [EM-9111]	1.0 ± 0.0 (n = 2) %	19 nM		

SMILES	Human Androgen Receptor Binding RBA (%) R1881 = 100 [1, 4]	IC50 [2, 5]	Human Androgen Receptor Binding RBA (%) R1881 = 100 [1, 7]	further results
Cc1c(N2C(=O)N(CCCOc3ccc(-c4ccncc4)cc3F)C(C)(C)C2=O)ccc(C#N)c1F [EM-9204]			22%	
CC1(C)C(=O)N(c2ccc(C#N)c(C(F)(F)F)c2)C(=S)N1CCCOc1ccc(-c2ccncc2)nc1 [EM-9092]		11.2 nM	72%	
Cc1c(N2C(=O)N(CCOc3ccc(-c4cc[n+]([O-])cc4)cc3)C(C)(C)C2=O)ccc(C#N)c1Cl [EM-9339]	4.0%			CX Agonistic activity % Stimulation Bulbo [3]: 68%; CX Agonistic activity % Stimulation SV [3]: 12%; CX Agonistic activity % Stimulation Prostate [3]: 27%
N#Cc1ccc(N2C(=O)N(CCCOc3ccc(-c4ccncc4)c(F)c3)C3(CCCC3)C2=O)cc1Cl [EM-9201]	70.8%	9.7 nM		
CC1(C)C(=O)N(c2ccc(C#N)c(C(F)(F)F)c2)C(=O)N1CCCOc1ccc(-c2ccncc2)c(F)c1 [EM-9066]		11 ± 4 nM	10.3 ± 1.3 (n = 2) %	
CC1(C)C(=O)N(c2ccc(C#N)c(Cl)c2)C(=O)N1CCCOc1ccc(-c2cc[n+]([O-])cc2)cn1 [EM-9225]				Human Androgen Receptor Binding RBA (%) R1881 = 100 [1]: 0.8%
CC1(C)C(=O)N(c2ccc(C#N)c(Cl)c2)C(=O)N1CCCOc1ccc(-c2cc[n+]([O-])cc2)cc1F [EM-9226]	2.4%	23 nM		
Cc1c(N2C(=O)N(c3ccc(-c4cccnc4)cc3)C(C)(C)C2=O)ccc(C#N)c1C(F)(F)F [EM-9342]		66 nM	0.4%	
CC1(C)C(=O)N(c2ccc(C#N)c(C(F)(F)F)c2)C(=S)N1CCCOc1ccc(-c2cc[n+]([O-])cc2)cc1 [EM-8929]			100 ± 12 (n = 2) %	IC50 [2, 6]: 17 ± 10 nM
CC1(C)C(=O)N(c2ccc(C#N)c(Cl)c2)C(=O)N1CCCOc1ccc(-c2cc[n+]([O-])cc2)c(F)c1 [EM-9117]	2.5 ± 0.5 (n = 5) %	31 ± 10 nM		
Cc1ccc(-c2ccc(OCCCN3C(=S)N(c4ccc(C#N)c(C(F)(F)F)c4)C(=O)C3(C)C)cc2)cn1 [EM-8908]	944 ± 265 (n = 2) %	50 nM		
CC1(C)C(=O)N(c2ccc(C#N)c(C(F)(F)F)c2)C(=S)N1CCCOc1ccc(-c2ccncc2)cc1F [EM-8872]	723 ± 59 (n = 2) %	36 nM		
CC1(C)C(=O)N(c2ccc(C#N)c(Cl)c2)C(=S)N1CCCOc1ccc(-c2ccncc2)c(F)c1 [EM-9037]		8.7 nM	1040 ± 350 (n = 2) %	
Cc1cc(OCCCN2C(=O)N(c3ccc(C#N)c(Cl)c3)C(=O)C2(C)C)ccc1-c1cc[n+]([O-])cc1 [EM-9221]	2.7%	10.6 nM		
CC1(C)C(=O)N(c2ccc(C#N)c(C(F)(F)F)c2)C(=S)N1CCCOc1ccc(-c2ccncc2)cc1 [EM-8841]	1200 ± 330 (n = 2) %	73 ± 5 nM		
Cc1c(N2C(=O)N(Cc3ccc(-c4ccncc4)cc3)C(C)(C)C2=O)ccc(C#N)c1Cl [EM-9343]	6.1%	21 nM		
Cc1c(N2C(=O)N(CCCCc3ccc(-c4ccncc4)cc3)C(C)(C)C2=O)ccc(C#N)c1Cl [EM-9336]	32.3%			CX Agonistic activity % Stimulation Bulbo [3]: 59%; CX Agonistic activity % Stimulation SV [3]: 8%; CX Agonistic activity % Stimulation Prostate [3]: 27%
CC(C)(O)C(=O)Nc1ccc([N+](=O)[O-])c(C(F)(F)F)c1 [OH-FLU, hydroxyflutamide, reference compound]			0.21 ± 0.09 (n = 3) %	Human Androgen Receptor Binding RBA (%) R1881 = 100 ([1]; relative binding affinity, R1881 = 100, transfected cells, listed as hydroxyflutamide): 0.21%
Cc1c(N2C(=O)N(CCCOc3ccc(-c4cc[n+]([O-])cc4)c(F)c3)C(C)(C)C2=O)ccc(C#N)c1F [EM-9208]			2.2%	
Cc1c(N2C(=O)N(CCOc3ccc(-c4ccncc4)cc3)C(C)(C)C2=O)ccc(C#N)c1Cl [EM-9337]	28.3%			CX Agonistic activity % Stimulation Bulbo [3]: 95%; CX Agonistic activity % Stimulation SV [3]: 17%; CX Agonistic activity % Stimulation Prostate [3]: 33%
